From patent publication US20250152751A1, “RED-SHIFTED FLUOROPHORES AND METHODS OF USING THE SAME” (GEORGIA STATE UNIVERSITY RESEARCH FOUNDATION, INC., priority 2022, published 2025)

Columns and labels:
[1] = Optical properties of the fluorophores measured in ethanol, compared to ICG; assay type: physicochemical; details: for Φ^a (%): compared to ICG
Procedure, shortened: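 Values cover absorption and emission maxima, Stokes shift, quantum yield and molar extinction coefficient. All were obtained for each fluorophore in ethanol, with a reference dye measured for comparison.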

[2] = Solvatochromism: absorption maximum in different solvents; assay type: physicochemical

SMILES | Stokes Shift (nm) [1] [nm] | λabs (nm) [1] [nm] | λem (nm) [1] [nm] | ϵ (cm^−1 M^−1) [1] | Φ^a (%) [1] [%] | λabs (nm) Acetonitrile [2] [nm] | λabs (nm) DMSO [2] [nm] | λabs (nm) Ethanol [2] [nm] | λabs (nm) Methanol [2] [nm]
CCCCN1C(=CC=C2CCCC(C=C(C#N)C(=O)O)=C2Sc2ccncc2)C(C)(C)c2ccccc21 [Compound 78] | 15 | 800 | 815 | 166,300 cm^−1 M^−1 | 11.3 | 795 | 810 | 800 | 800
CCN1C(=CC=C2CCCC(C=C(C#N)C(=O)O)=C2N2CCC(CO)CC2)C(C)(C)c2ccccc21 [Compound 80] | 101 | 685 | 786 | 78,200 cm^−1 M^−1 | 16.7 | 660 | 690 | 685 | 675
CCCCN1/C(=C/C=C2\CCCC(C=C(C#N)C#N)=C2Cl)C(C)(C)c2c1ccc1ccccc21 [Compound 76] | 6 | 820 | 826 | 146,400 cm^−1 M^−1 | 8.8 | 820 | 835 | 820 | 820
CCN1C(=CC=C2CCCC(C=C(C#N)C(=O)O)=C2Sc2ccncc2)C(C)(C)c2ccccc21 [Compound 77] | 15 | 800 | 815 | 134,400 cm^−1 M^−1 | 11.5 | 790 | 810 | 800 | 795
CCN1/C(=C/C=C2\CC(C(C)(C)C)CC(/C=C(\C#N)C(=O)O)=C2Sc2ccncc2)C(C)(C)c2cc(Cl)ccc21 (stereo not shown) [Compound 79] | 13 | 805 | 818 | 147,300 cm^−1 M^−1 | 11.3 | 800 | 815 | 805 | 800
CCN1C(=CC=C2CC(C(C)(C)C)CC(C=C(C#N)C(=O)O)=C2N2CCC(CO)CC2)C(C)(C)c2ccccc21 (stereo not shown) [Compound 84] | 124 | 660 | 784 | 75,100 cm^−1 M^−1 | 18.6 | 640 | 665 | 660 | 650
CCCCN1/C(=C/C=C2\CC(C(C)(C)C)CC(/C=C(\C#N)C(=O)O)=C2Cl)Sc2ccccc21 (stereo not shown) [Compound 65] | 12 | 800 | 812 | 192,000 cm^−1 M^−1 | 10.5 |  |  |  | 
CCCCN1C(=CC=C2CC(C(C)(C)C)CC(C=C(C#N)C(=O)O)=C2Cl)C(C)(C)c2c1ccc1ccccc21 (stereo not shown) [Compound 64] | 8 | 820 | 828 | 146,300 cm^−1 M^−1 | 7.3 |  |  |  | 
